Reference: ChEMBL document CHEMBL1201862, “PubChem BioAssay data set” (2004)
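Five compound concentrations were applied to cells in 96-well plates for 48 hours; endpoints were derived by simple linear interpolation of the resulting dose-response curve. GI50 = concentration required for 50% inhibition of growth.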 Calls of active or inactive are those of the source. Cut-off read from the data, not from the text of the source: active = GI50 up to about 1.1 µM and inactive = higher.

Columns and labels:
Test in all cases: growth of human tumour cells (NCI), 48 h
[1] = test system: 786-0
[2] = test system: A549
[3] = test system: ACHN
[4] = test system: BT-549
[5] = test system: CCRF-CEM
[6] = test system: EKVX
[7] = test system: HCC 2998
[8] = test system: HCT-15
[9] = test system: HL-60
[10] = test system: HOP-62
[11] = test system: HT-29
[12] = test system: Hs-578T
[13] = test system: IGROV-1
[14] = test system: K562
[15] = test system: KM12
[16] = test system: LOX IMVI
[17] = test system: M14
[18] = test system: MCF7
[19] = test system: MDA-MB-435
[20] = test system: MOLT-4
[21] = test system: Malme-3M
[22] = test system: NCI-H226
[23] = test system: NCI-H23
[24] = test system: NCI-H460
[25] = test system: NCI-H522
[26] = test system: NCI/ADR-RES
[27] = test system: OVCAR-3
[28] = test system: OVCAR-4
[29] = test system: OVCAR-5
[30] = test system: OVCAR-8
[31] = test system: PC-3
[32] = test system: RPMI-8226
[33] = test system: RXF 393
[34] = test system: SF-268
[35] = test system: SF-295
[36] = test system: SF-539
[37] = test system: SK-MEL-28
[38] = test system: SK-MEL-2
[39] = test system: SK-MEL-5
[40] = test system: SK-OV-3
[41] = test system: SN12C
[42] = test system: SNB-19
[43] = test system: SNB-75
[44] = test system: SR
[45] = test system: SW-620
[46] = test system: TK-10
[47] = test system: U-251
[48] = test system: UACC-257
[49] = test system: UO-31
[50] = test system: A498
[51] = test system: CAKI-1
[52] = test system: COLO 205
[53] = test system: DU-145
[54] = test system: HCT-116
[55] = test system: HOP-92
[56] = test system: MDA-MB-231
[57] = test system: T47D
[58] = test system: UACC-62

Measured: GI50

Clc1nc(Cl)c(Cl)c(-c2ccccc2)n1
active: [5] 0.74 µM | [44] 0.322 µM
11.4 µM: [8]
inactive: [1] 2.21 µM | [2] 13.8 µM | [3] 17.4 µM | [4] 2.41 µM | [6] 16.6 µM | [7] 22.2 µM | [9] > 100 µM | [10] 4.03 µM | [11] 1.68 µM | [12] 2.73 µM | [13] 15.4 µM | [14] 1.44 µM | [15] 5.02 µM | [16] 1.86 µM | [17] 1.77 µM | [18] 7.05 µM | [19] 14.6 µM | [20] 1.58 µM | [21] 5.61 µM | [22] 24.3 µM | [23] 15.8 µM | [24] 9.46 µM | [25] 1.67 µM | [26] 5.62 µM | [27] 2.05 µM | [28] 4.85 µM | [29] 20.3 µM | [30] 10.4 µM | [31] 10.5 µM | [32] 5.24 µM | [33] 13.6 µM | [34] 23.9 µM | [35] 3.93 µM | [36] 11.8 µM | [37] 16 µM | [38] 15.4 µM | [39] 2.43 µM | [40] 13.1 µM | [41] 20 µM | [42] 15.6 µM | [43] 2.26 µM | [45] 1.94 µM | [46] 18.8 µM | [47] 15.1 µM | [48] 20.5 µM | [49] 18.1 µM

COc1ccc2c(c1)CC[C@@H]1[C@@H]2CC[C@]2(C)C(=O)/C(=C/c3ccc(N(C)C)cc3)C[C@@H]12
> 100 µM: [8]
inactive: [1] 29.2 µM | [50] 30.3 µM | [2] 41.9 µM | [3] 48.9 µM | [4] 29.1 µM | [51] 28.1 µM | [52] > 100 µM | [53] > 100 µM | [6] 63.5 µM | [7] > 100 µM | [54] 44 µM | [9] > 100 µM | [10] 20.8 µM | [55] 24.2 µM | [15] 84.3 µM | [17] 61.2 µM | [56] 55.8 µM | [19] > 100 µM | [20] > 100 µM | [21] 83.2 µM | [23] 33 µM | [24] 39.8 µM | [26] 33 µM | [27] 23 µM | [28] 37.2 µM | [29] > 100 µM | [31] 47.2 µM | [32] > 100 µM | [33] 27 µM | [34] 32.4 µM | [35] 40.2 µM | [36] > 100 µM | [38] 24.9 µM | [39] 73.1 µM | [40] 53.7 µM | [42] 35.6 µM | [43] 24.2 µM | [45] > 100 µM | [57] 44.1 µM | [46] 33.2 µM | [47] 46.1 µM | [58] 32.6 µM | [49] 98.9 µM
